By IC50 is commonly meant the point on the concentration scale where inhibition reaches its midpoint. Low readings indicate inhibition by little substance, high ones a need for much substance.

For one experiment, the system named is Beta-TC-6 cells. Briefly: Insulin release enhancement in Beta-TC-6 cells (insulin ELISA). Format: cell-based, mouse. The note with it: for glucose dependence of stimulation of insulin release: varying glucose concentration, FIG. 3 and FIG. 7; for Percent Enhancement of Insulin Secretion (10 μM): compound at 10 μM. The method, then: Beta-TC-6 cells are an insulin-secreting cell line derived from transgenic mice expressing the large T-antigen of simian virus 40 (SV40) in pancreatic beta-cells as described by Poitout et al., Diabetes, 44:306-313 (1995). The cell line was obtained from ATCC cell bank CAT# CRL-11506 and grown in Dulbecco's Modified Eagle's Medium (DMEM) with 15% fetal bovine serum (FBS), 4 mM glutamine, 4.5 mM glucose 1500 mg/L sodium bicarbonate and 1× penn/strep antibiotic mix in a 37° C. incubator with 5% CO2. Cultures were routinely split 1:2 twice a week with the aid of trypsin.
On the day before the assay 0.1×10^6 Beta-TC-6 cells were plated into each well of 96 well plates, and the cells cultured overnight in growth media.
On the next day, growth media was removed from the plate and the monolayers rinsed with phosphate buffered saline (PBS) and pre-incubated 30 mins at 37° C. in Krebs-Ringer Bicarbonate Buffer (KRBB) consisting of 118.5 mM NaCl, 2.54 mM CaCl2, 1.19 mM KH2PO4, 4.74 mM KCl, 25 mM NaHCO3, 1.19 mM MgSO4, 10 mM HEPES buffer and 0.1% bovine serum albumin at pH 7.4. This buffer was removed and replaced with 100 μL of the same buffer containing various insulin release modulators: including various concentrations of glucose up to 12 mM and compounds up to 100 μM. Compounds stock solutions, e.g. 10-20 mM, were diluted in DMSO. Final DMSO concentrations in incubation buffer were 0.5% or less. Vehicle controls were included. Static incubations were then performed for 2 h at 37° C. The entire incubation volume was collected after the 2 h incubation for insulin assay.
ELISA Protocol for insulin determinations. The following protocol was used for doing ELISA using the Rat/Mouse Insulin ELISA Kit from Linco Research, Inc., CAT#EZRMI-13K and Amplex® Red Hydrogen Peroxide/Peroxidase Assay Kit, CAT#A22188, and Amplex® Red reagent (10-acetyl-3,7-dihydroxyphenoxazine) CAT#A12222.
All reagents were Pre-warmed to room temperature before setting up experiment.
1. Dilute the 10× washing buffer into 1× washing buffer. 50 mL+450 mL de-ionized water. Do 1:10 dilution to the cell culture supernatant (Beta-TC-6 cell incubation).
2. Use one column (8 wells) wells for standard samples and QC1 and QC2, typically 0 and 5 ng/mL of insulin. On some plates full standard curves for insulin obtained as shown below.
3. Cover the unused wells well. Wash each well 3 times with 300 μL of 1× washing buffer each time. (2 minutes each washing step on the shaker.) Decant Wash Buffer and remove the residual amount from all wells by inverting the plate and tapping it smartly onto absorbent towels several times.
4. Add 20 μL Assay Buffer into that blank well and 10 μL into those wells for standards and samples.
5. Add 10 μL rat insulin standards and samples to the appropriate wells.
6. Add 80 μL Detection Antibody to all wells. Cover the plate and incubate at room temperature for 2 hours.
7. Tear off the plate cover and decant solutions from the plate. Tap to remove residual solutions in well.
8. Wash well 3 times with diluted wash buffer 300 μL per well per wash (2 minutes each washing step on the shaker). Tap to remove residual solutions as before.
9. Add 100 μL Enzyme Solution to each well. Cover plate with sealer and incubate with moderate shaking at room temperature for 30 min on the microtiter plate shaker.
10. Remove sealer, decant solutions from the plate and tap plate to remove the residual fluid.
11. Wash wells 6 times with diluted Wash Buffer, 300 μL per well per wash. Decant and tap after each wash to remove residual buffer.
12. Prepare 5 mL working solution of […] Amolex Red reagent containing 2.0 mM H2O2. 4.45 mL of 1× Reaction buffer+50 μL 10 mM Amplex Reagent+500 μL 20 mM H2O2.
13. Add 100 μL of the Amplex Red reagent/H2O2 to each well.
14. Incubate the reactions. Incubate at room temperature for 30 minutes, protected from light (using foil to wrap the plate). […]
In general terms: An ELISA detects its analyte on a solid surface through an enzyme-linked reagent.

The next experiment has as its target T1, TRPM5 (Homo sapiens, UniProt Q9NZQ8).
T1 sequence (Q9NZQ8 1-1165): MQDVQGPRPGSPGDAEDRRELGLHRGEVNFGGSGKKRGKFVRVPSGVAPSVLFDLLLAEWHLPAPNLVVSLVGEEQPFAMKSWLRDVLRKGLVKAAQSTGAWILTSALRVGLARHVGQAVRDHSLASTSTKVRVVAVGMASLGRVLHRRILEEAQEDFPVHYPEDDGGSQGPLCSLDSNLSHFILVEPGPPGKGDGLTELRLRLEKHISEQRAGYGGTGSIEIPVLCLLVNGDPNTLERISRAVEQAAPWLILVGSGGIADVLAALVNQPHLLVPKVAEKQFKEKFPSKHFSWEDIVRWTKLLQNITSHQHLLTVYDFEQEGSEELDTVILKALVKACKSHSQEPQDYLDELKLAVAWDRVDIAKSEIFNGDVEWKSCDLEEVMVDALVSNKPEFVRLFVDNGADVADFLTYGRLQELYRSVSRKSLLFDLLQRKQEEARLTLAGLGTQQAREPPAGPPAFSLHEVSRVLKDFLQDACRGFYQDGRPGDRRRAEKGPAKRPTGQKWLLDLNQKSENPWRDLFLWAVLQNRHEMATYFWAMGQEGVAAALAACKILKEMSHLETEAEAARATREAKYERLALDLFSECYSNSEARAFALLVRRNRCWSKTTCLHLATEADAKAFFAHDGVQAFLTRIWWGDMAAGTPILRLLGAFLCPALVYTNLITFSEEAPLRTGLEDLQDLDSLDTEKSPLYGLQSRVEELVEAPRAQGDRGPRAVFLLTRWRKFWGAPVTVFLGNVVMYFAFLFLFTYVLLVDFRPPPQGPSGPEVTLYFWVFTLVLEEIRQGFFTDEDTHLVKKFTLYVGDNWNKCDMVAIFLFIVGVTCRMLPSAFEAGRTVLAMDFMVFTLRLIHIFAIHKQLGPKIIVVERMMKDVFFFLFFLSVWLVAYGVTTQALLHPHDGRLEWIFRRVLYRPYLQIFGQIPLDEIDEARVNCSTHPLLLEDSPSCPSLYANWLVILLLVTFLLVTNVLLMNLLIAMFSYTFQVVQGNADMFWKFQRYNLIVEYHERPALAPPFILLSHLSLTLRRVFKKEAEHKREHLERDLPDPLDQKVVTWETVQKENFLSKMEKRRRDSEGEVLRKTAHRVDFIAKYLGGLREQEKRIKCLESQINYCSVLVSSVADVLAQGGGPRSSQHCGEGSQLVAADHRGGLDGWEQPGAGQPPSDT
Description: TRPM5 inhibition (FLIPR Membrane Potential Assay). Format: cell-based.

In experiment [1] the test system is calcium-activated current in Beta TC6 cells. Briefly: Whole-cell electrophysiology of calcium-activated current in Beta TC6 cells. In kind it is cell-based, mouse. The note with it: pulsed doses, current versus time, FIG. 13. The method, then: Whole-cell recordings of TRP channel currents were obtained from acutely trypsinized beta TC-6 cells and TRPM5-expressing HEK cells. The bath solution was Hank's Balanced Salt Solution, composed of (mM); 1.2 CaCl2, 0.5 MgCl2-6H2O, 0.4 MgSO4.7H2O, 5.3 KCl, 0.4 KH2PO4, 137.9 NaCl, 0.3 Na2HPO4.7H2O, and 5.5 D-Glucose, with 20 mM HEPES (Invitrogen), pH 7.4 (NaOH). The internal pipette solution contained, in mM: 135 glutamic acid, 8 NaCl, 9 CaCl2, 10 HEPES and 10 EGTA, pH 7.2 (CsOH) (Sigma). Calculated concentration of free calcium in internal solution was 1.5 μM (http://www.stanford.edu/˜cpatton/webmaxc/webmaxcS.htm). Recording pipettes were pulled using a Flaming/Brown Micropipette Puller (Sutter Instruments), from fire-polished borosilicate glass, to approximately 2 MΩ.
Voltage clamp recordings were obtained in whole cell mode using MultiClamp 700B amplifier and Digidata 1322A converter running on Clampex 9.2 software (Axon Instruments). Recordings were performed at room temperature. The recording protocol consisted of a ramp from −80 mV potential to +80 mV, followed by a step to −80 mV. Peak current was measured at three different voltages: −80 mV, after ramping to +80 mV, then following a return to −80 mV. Series resistance was automatically compensated immediately after the break-in, and the resulting capacitance measurements were used for current density calculations. […]

The mark [2] stands for this setting: compared to glucose-dependent insulin production.

Consider `CCCCNC(=O)NS(=O)(=O)c1ccc(C)cc1` [Tolbutamide, tolbutamide, reference compound], for which the “Percent Enhancement of Insulin Secretion” value in the experiment with Beta-TC-6 cells (tolbutamide tested at 30 μM, compared to glucose-dependent insulin production) was found to be 228%. The “glucose dependence of stimulation of insulin release” value in the experiment on Beta-TC-6 cells was “not sensitive to glucose levels”.
As for `COc1ccc(/C=N/NC(=O)C2CC2c2ccccc2)cc1OC` (centres unmarked) [Example 4, (E)-N′-(3,4-Dimethoxybenzylidene)-2-phenylcyclopropanecarbohydrazide], in the experiment with Beta-TC-6 cells (FIG. 6), the “effect on insulin secretion in combination with tolbutamide” value is reported as “additive effects”. Moreover, the “Percent Enhancement of Insulin Secretion (10 μM)” value (“Percent Enhancement … (10 μM)” for short) in the experiment with Beta-TC-6 cells (setting [2]) worked out at 111%. For the same molecule, the “glucose dependence of stimulation of insulin release” value in the experiment with Beta-TC-6 cells is “increases insulin secretion in a glucose-dependent manner”. The IC50 against TRPM5 turned out to be 600 nM. For the same molecule, the “inhibition of calcium-activated current” value in experiment [1] was “inhibition of the current”.
With `COc1ccc(/C=N/NC(=O)CSc2cc(C)c3cccc(C)c3n2)cc1OC` [Example 24, (4,8-Dimethylquinolin-2-ylsulfanyl)acetic acid (3,4-dimethoxybenzylidene)hydrazide], the “Percent Enhancement … (10 μM)” value with Beta-TC-6 cells (setting [2]) turned out to be 207%. The molecule further registered an IC50 against TRPM5 of 400 nM.
In the case of `COc1ccc(/C=N/NC(=O)COc2cccc(C)c2)cc1OC` [Example 8, (E)-N′-(3,4-Dimethoxybenzylidene)-2-(m-tolyloxy)acetohydrazide], the “Percent Enhancement … (10 μM)” value in the experiment on Beta-TC-6 cells (setting [2]) was 39%. In addition, the IC50 on TRPM5 amounted to 3000 nM.

These data come from patent US8193168B2, “Use of a TRPM5 inhibitor to regulate insulin and GLP-1 release” (Redpoint Bio Corporation, priority 2007, dated 2012).
